Where two headings read alike, the source gives them in different places.
What was measured:
[1] = target: T1, glutathione-S-transferase (GST) tagged LXRalpha LBD (ligand binding domain) (Homo sapiens, UniProt Q13133); test: LanthaScreen TR-FRET Liver X Receptor Coactivator Assay, co-activator recruitment to LXRalpha LBD; type: biochemical
T1 construct: purchased Invitrogen pv4655
T1 sequence (Q13133 209-447 limits assumed): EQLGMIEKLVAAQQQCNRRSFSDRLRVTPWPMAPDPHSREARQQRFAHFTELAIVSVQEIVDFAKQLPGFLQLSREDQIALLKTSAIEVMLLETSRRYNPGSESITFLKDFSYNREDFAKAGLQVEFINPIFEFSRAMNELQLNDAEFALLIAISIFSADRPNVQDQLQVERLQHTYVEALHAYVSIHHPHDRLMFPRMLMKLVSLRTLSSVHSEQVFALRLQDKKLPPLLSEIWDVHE
In short: (§1)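 LXRα- or LXRβ-LBD protein was added to test compounds, then fluorescein-labelled coactivator peptide plus Tb-anti-GST antibody; after room-temperature incubation, TR-FRET was read. Inflection point (IP) and Emax were expressed relative to the dual agonist reference T0901317.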

[2] = target: T2, glutathione-S-transferase (GST) tagged LXRbeta LBD (ligand binding domain) (Homo sapiens, UniProt P55055); test: LanthaScreen TR-FRET Liver X Receptor Coactivator Assay, co-activator recruitment to LXRbeta LBD; type: biochemical
T2 construct: purchased Invitrogen pv4658.pps
T2 sequence (P55055 222-460 limits assumed): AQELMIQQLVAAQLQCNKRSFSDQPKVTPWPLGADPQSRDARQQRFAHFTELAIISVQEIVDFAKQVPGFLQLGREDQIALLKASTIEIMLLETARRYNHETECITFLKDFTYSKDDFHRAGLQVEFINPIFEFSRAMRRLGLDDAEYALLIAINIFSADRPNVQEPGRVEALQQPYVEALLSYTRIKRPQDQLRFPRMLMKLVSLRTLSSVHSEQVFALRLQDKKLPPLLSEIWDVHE
In short: as §1

[3] = efficacy at max dose, in relation to reference dual agonist T0901317, read-out: LXR alpha Activity @ max dose (%)
[4] = potency (Inflection Point, IP), co-activator recruitment to LXRalpha LBD, in relation to T0901317, read-out: LXR alpha IP
[5] = efficacy at max dose, in relation to reference dual agonist T0901317, read-out: LXR beta Activity @ max dose (%)
[6] = potency (Inflection Point, IP), co-activator recruitment to LXRbeta LBD, in relation to T0901317, read-out: LXR beta IP
[7] = potency (Inflection Point, IP), co-activator recruitment to LXRalpha LBD, in relation to T0901317

Row | SMILES | Emax [1, 3] | EC50 [1, 4] | Emax [2, 5] | EC50 [2, 6] | LXR alpha IP (nM) [1, 7] | EC50 ([1]; co-activator recruitment to GST-LXRalpha LBD, TR-FRET, read-out: LXR alpha IP (Inflection Point, potency)) | Emax ([1]; efficacy in relation to reference dual agonist T0901317, read-out: LXR alpha Activity @ max dose) | EC50 ([2]; co-activator recruitment to GST-LXRbeta LBD, TR-FRET, read-out: LXR beta IP (Inflection Point, potency)) | Emax ([2]; efficacy in relation to reference dual agonist T0901317, read-out: LXR beta Activity @ max dose)
1 | CN(C)C(=O)c1ncc(N2CCC(CC3CCN(C(=O)[C@](O)(c4ccccc4)C(F)(F)F)CC3)CC2)cc1Cl [Example 2-4, 3-chloro-N,N-dimethyl-5-[4-({1-[(2R)-3,3,3-trifluoro-2-hydroxy-2-phenylpropanoyl]piperidin-4-yl}methyl)piperidin-1-yl] pyridine-2-carboxamide] | 24% | 0.461 µM | 80% | 0.019 µM |  |  |  |  | 
2 | CN(C)C(=O)c1ccc(N2CCC(CC3CCN(C(=O)C(O)(c4cc(F)cc(F)c4)C(F)(F)F)CC3)CC2)cc1 (stereo not shown) [Example 2-126, 4-[4-({1-[2-(3,5-difluoro-phenyl)-3,3,3-trifluoro-2-hydroxy-propanoyl]piperidin-4-yl}methyl)piperidin-1-yl]-N,N-dimethyl-benzamide] | 33% | 0.126 µM | 118% | 0.038 µM |  |  |  |  | 
3 | COc1cccc([C@@](O)(C(=O)N2CCC(CC3CCN(c4ccc(C(=O)N(C)C)c(Cl)c4)CC3)CC2)C(F)(F)F)c1 [Example 2-35, 2-chloro-N,N-dimethyl-4-[4-({1-[(2R)-3,3,3-trifluoro-2-hydroxy-2-(3-methoxyphenyl)propanoyl]piperidin-4-yl}methyl)piperidin-1-yl]benzamide] | 6% |  | 44% | 0.008 µM | NO IP |  |  |  | 
4 | CC(C)c1cccc([C@@](O)(C(=O)N2CCC(C)(CC3CCN(c4ccc(C(=O)N(C)C)c(Cl)c4)CC3)CC2)C(F)(F)F)c1 [Example 2-56, 2-chloro-N,N-dimethyl-4-{4-[(4-methyl-1-{(2R)-3,3,3-trifluoro-2-hydroxy-2-[3-(1-methylethyl)phenyl]propanoyl}piperidin-4-yl)methyl]piperidin-1-yl}benzamide] | 2% |  | 37% | 0.018 µM | NO IP |  |  |  | 
5 | COc1cccc([C@@](O)(C(=O)N2CCC(OC3CCN(c4ccc(C(=O)N(C)C)c(Cl)c4)CC3)CC2)C(F)(F)F)c1 [Example 2-28, 2-chloro-N,N-dimethyl-4-[4-({1-[(2R)-3,3,3-trifluoro-2-hydroxy-2-(3-methoxyphenyl)propanoyl]piperidin-4-yl}oxy)piperidin-1-yl]benzamide] | 28% | 1.74 µM | 87% | 0.025 µM |  |  |  |  | 
6 | COc1nc(N2CCC(CC3CCN(C(=O)[C@](O)(c4ccccc4)C(F)(F)F)CC3)CC2)ccc1C(=O)N(C)C [Example 7-18, 2-methoxy-N,N-dimethyl-6-[4-({1-[(2R)-3,3,3-trifluoro-2-hydroxy-2-phenylpropanoyl]piperidin-4-yl}methyl)piperidin-1-yl] pyridine-3-carboxamide] | 34% | 0.442 µM | 80% | 0.006 µM |  |  |  |  | 
7 | O=C(c1ccc(N2CCC(CC3CCN(C(=O)[C@](O)(c4ccccc4)C(F)(F)F)CC3)CC2)cc1Cl)N1CCC1 [Example 4-1, (R)-1-(4-((1-(4-(azetidine-1-carbonyl)-3-chlorophenyl)piperidin-4-yl)methyl)piperidin-1-yl)-3,3,3-trifluoro-2-hydroxy-2-phenylpropan-1-one] | 31% | 0.555 µM | 72% | 0.053 µM |  |  |  |  | 
8 | CN(C)C(=O)c1ccc(N2CCC(CC3CCN(C(=O)C(N)(c4ccccc4)C(F)(F)C(F)(F)F)CC3)CC2)cc1Cl (stereo not shown) [Example 2-123, 4-(4-{[1-(2-amino-3,3,4,4,4-pentafluoro-2-phenylbutanoyl)piperidin-4-yl]methyl}piperidin-1-yl)-2-chloro-N,N-dimethyl-benzamide] | 21% | 1.47 µM | 106% | 0.335 µM |  |  |  |  | 
9 | CN(C)C(=O)c1ccc(N2CCC(CC3CCN(C(=O)[C@](O)(c4cccc(C#N)c4)C(F)(F)F)CC3)CC2)cc1Cl [Example 2-88, 2-chloro-4-[4-({1-[(2R)-2-(3-cyanophenyl)-3,3,3-trifluoro-2-hydroxy-propanoyl]piperidin-4-yl}methyl)piperidin-1-yl]-N,N-dimethyl-benzamide] | 29% | 0.137 µM | 79% | 0.011 µM |  |  |  |  | 
10 | CN(C)C(=O)c1ccc(N2CCC(CC3CCN(C(=O)C(O)(c4cccc5c4CCC5)C(F)(F)F)CC3)CC2)cc1Cl (stereo not shown) [Example 2-170, 2-chloro-4-[4-({1-[2-(2,3-dihydro-1H-inden-4-yl)-3,3,3-trifluoro-2-hydroxy-propanoyl]piperidin-4-yl}methyl)piperidin-1-yl]-N,N-dimethyl-benzamide] | 0% |  | 19% | 0.027 µM | NO IP |  |  |  | 
11 | CN(C)C(=O)c1ccc(N2CCC(CC3CCN(C(=O)C(O)(c4ccc(C(F)(F)F)cc4)C(F)(F)F)CC3)CC2)cc1Cl (stereo not shown) [Example 2-16, 2-chloro-N,N-dimethyl-4-{4-[(1-{3,3,3-trifluoro-2-hydroxy-2-[4-(trifluoromethyl)phenyl]propanoyl}piperidin-4-yl)methyl]piperidin-1-yl} benzamide] | 0% |  | 15% | 0.598 µM | NO IP |  |  |  | 
12 | CN(C)C(=O)c1ccc(N2CCC(CC3CCN(S(=O)(=O)c4cccs4)CC3)CC2)cc1Cl [Example 13-4, 2-chloro-N,N-dimethyl-4-(4-{[1-(thiopen-2-ylsulfonyl)piperidin-4-yl]methyl}piperidin-1-yl)benzamide] |  |  |  |  |  | 0.264 µM | 43% | 0.026 µM | 67%
13 | CC(C)Oc1cccc(C(O)(C(=O)N2CCC(CC3CCN(c4ccc(C(=O)N(C)C)c(Cl)c4)CC3)CC2)C(F)(F)F)c1 (stereo not shown) [Example 2-82, 2-chloro-N,N-dimethyl-4-{4-[(1-{3,3,3-trifluoro-2-hydroxy-2-[3-(1-methyl-ethoxy)phenyl]propanoyl}piperidin-4-yl)methyl]piperidin-1-yl}benzamide] | 13% |  | 50% | 0.012 µM | NO IP |  |  |  | 
14 | COc1cccc([C@@](O)(C(=O)N2CCC(CC3CN(c4ccc(C(=O)N(C)C)c(OC)n4)C3)CC2)C(F)(F)F)c1 [Example 7-23, 2-methoxy-N,N-dimethyl-6-[3-({1-[(2R)-3,3,3-trifluoro-2-hydroxy-2-(3-methoxyphenyl)propanoyl]piperidin-4-yl}methyl)azetidin-1-yl]pyridine-3-carboxamide] | 0% |  | 54% | 1.23 µM | NO IP |  |  |  | 
15 | CN(C)C(=O)c1ccc(N2CCC(CC3CCN(C(=O)[C@](O)(c4ccccc4F)C(F)(F)F)CC3)CC2)cc1Cl [Example 2-85, 2-chloro-N,N-dimethyl-4-[4-({1-[(2R)-3,3,3-trifluoro-2-(2-fluorophenyl)-2-hydroxy-propanoyl]piperidin-4-yl}methyl)piperidin-1-yl]benzamide] | 21% | 0.554 µM | 68% | 0.017 µM |  |  |  |  | 
16 | CCOc1cccc([C@@](O)(C(=O)N2CCC(CC3CCN(c4ccc(C(=O)N(C)C)c(Cl)n4)CC3)CC2)C(F)(F)F)c1 [Example 7-92, 2-chloro-6-[4-({1-[(2R)-2-(3-ethoxyphenyl)-3,3,3-trifluoro-2-hydroxypropanoyl]piperidin-4-yl}methyl)piperidin-1-yl]-N,N-dimethylpyridine-3-carboxamide] | 8% |  | 51% | 0.006 µM | NO IP |  |  |  | 

— US10752587B2, “Homobispiperidinyl derivatives as liver X receptor beta agonists, compositions and their use” (Merck Sharp & Dohme Corp., priority 2015, dated 2020)
